We go through six compounds from article PMC8880268, “Magnolol and Luteolin Inhibition of α-Glucosidase Activity: Kinetics and Type of Interaction Detected by In Vitro and In Silico Studies” (Pharmaceuticals, 2022).

The test system of assay [1] is α-glucosidase. Conditions: cited from earlier work; for type of inhibition (inhibition kinetic assays): ref 19; for IC50: studied with 0.5 µM of α-glucosidase ref 19.
The target in assay [2] is T1, α-glucosidase (Saccharomyces cerevisiae, UniProt P38158).
T1 construct: purchased Merck KGaA, Darmstadt, Germany
Put plainly: Fluorescence quenching analysis and thermodynamic parameters. The format is binding. To be noted: for Ksv (Stern–Volmer quenching constant): pH 6.8, α-glucosidase 0.35 µM. The method, then:
The interaction of inhibitors with α-glucosidase was studied using the fluorescence quenching method. […] Measurements were made in the emission range of 300–450 nm, with an excitation of 280 nm, after 10 min of stabilization. The fluorescent spectra of α-glucosidase (0.35 µM) and each inhibitor (0–1.0 µM) were carried out at three different temperatures (298, 304, and 310 K) and the bandwidths were set at 5 nm for both emission and excitation slits. For each sample, three fluorescence spectra were acquired, and the blank was subtracted. The compound quenching mechanism was assessed using the Stern–Volmer equation: F0 / F = 1 + Ksv[Q] = 1 + Kq^.τo[Q], where F0 and F are the fluorescence measure in absence and in presence of different concentrations of quencher, respectively; Ksv is the Stern–Volmer quenching constant; Kq is the coefficient of quencher rate coefficient; τ0 is the life time of the excited state; and [Q] is the concentration of the quencher.
Further elaboration of the equilibrium within the free and bound molecules can be achieved through the analysis of the fluorescence emission data utilizing the following equation: log (F0 − F) / F = log Ka + n log [Q], which obtains the binding constant (Ka) and the number of binding sites per protein (n) for the enzyme-inhibitor system.
Thermodynamic spontaneity is an important factor in the study of protein-ligand interaction. A system tends not only toward a lower energy state (enthalpy, ΔH), but also according to a state of disorder (entropy, ΔS). Thermodynamic parameters were obtained according to the Van ’t Hoff equation and the plot of “log Ka vs. 1/T”. The trade-off between enthalpy (ΔH°) and entropy (ΔS°) is used to obtain the standard free energy variation (ΔG°).

The target of assay [3] is T1, α-glucosidase. The assay can be described thus: Yeast α-glucosidase inhibitory assay (pNPG substrate, absorbance 405 nm). The class given is biochemical. Conditions: plots v vs. [α-glucosidase] at different inhibitor concentrations. As to the method:
α-Glucosidase inhibitory activity was determined according to a previous method. Briefly, 0.1 mM PBS (pH 6.8) was used to dissolve α-glucosidase and pNPG. In detail, 80 μL of PBS or 80 μL of test sample were added to 96-well plates. Successively, 20 μL of enzyme (0.025–0.125 µM) were added to each well. Magnolol (10–100 μM) and luteolin (5–50 μM) were prepared in DMSO (<1% v/v). […] Each sample was incubated with α-glucosidase for 10 min at 37 °C. The reaction started by adding 200 μL of pNPG (2 mM). The absorbance values were detected at 405 nm for 60 min, using a PerkinElmer Victor Nivo microplate spectrophotometer (Waltham, MA, USA). The α-glucosidase activity in the absence of inhibitors was defined as 100%. The half-maximal inhibitory concentration (IC50) was estimated by plot of relative enzymatic activity vs. inhibitor concentration.

Assay [4] addresses T1, α-glucosidase. The assay can be described thus: Kinetic analysis of yeast α-glucosidase inhibition (Michaelis–Menten and Lineweaver–Burk plots). Conditions: for Kcat of α-glucosidase: 0.075 µM α-glucosidase. The class given is biochemical. As to the method:
The type of enzyme inhibition exerted by inhibitors was evaluated from kinetic studies using different substrate concentrations (0.25–2.5 mM pNPG) applying Michaelis–Menten and Lineweaver–Burk plots. Inhibition constants (Ki) were determined by plots of the Y-intercept of the Lineweaver–Burk plot vs. inhibitor concentration.

The target of assay [5] is T1, α-glucosidase. The assay can be described thus: Inactivation kinetics, time course of α-glucosidase activity. The format is biochemical. To be noted: enzyme 0.075 µM, pNPG 2 mM. As to the method: The enzyme and substrate concentrations were 0.075 µM and 2 mM, respectively.
[6] abbreviates: 298–310 K, Van ’t Hoff equation.

T1 sequence (P38158 whole entry): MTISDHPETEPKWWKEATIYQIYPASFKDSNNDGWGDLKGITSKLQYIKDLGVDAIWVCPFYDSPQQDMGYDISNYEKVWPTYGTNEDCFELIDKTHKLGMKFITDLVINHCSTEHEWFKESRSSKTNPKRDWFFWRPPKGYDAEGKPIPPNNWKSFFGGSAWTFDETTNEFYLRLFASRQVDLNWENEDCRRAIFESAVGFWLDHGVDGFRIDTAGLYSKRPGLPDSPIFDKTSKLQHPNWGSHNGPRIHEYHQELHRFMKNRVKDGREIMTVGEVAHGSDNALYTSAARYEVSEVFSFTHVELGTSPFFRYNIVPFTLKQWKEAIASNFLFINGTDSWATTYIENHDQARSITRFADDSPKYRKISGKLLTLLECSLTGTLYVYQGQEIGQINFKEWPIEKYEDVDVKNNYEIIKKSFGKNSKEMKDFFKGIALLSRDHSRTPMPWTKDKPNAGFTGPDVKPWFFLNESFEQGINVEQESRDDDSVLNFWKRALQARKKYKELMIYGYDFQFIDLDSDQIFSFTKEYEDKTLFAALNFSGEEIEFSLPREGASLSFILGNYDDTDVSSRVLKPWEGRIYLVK

One may read the IC50 as the point on the concentration scale where inhibition reaches its midpoint. For the compound `O=C(OC[C@@H]1O[C@@H](Oc2c(-c3ccc(O)c(O)c3)oc3cc(O)cc(O)c3c2=O)[C@@H](O)[C@H](O)[C@@H]1O)c1cc(O)c(O)c(O)c1` [compound 4], in the assay on α-glucosidase [1], the “type of inhibition (inhibition kinetic assays)” value is given as “non-competitive inhibitor” and the IC50 was 1350 nM.

Regarding `O=C(OC1C(O)C(CO)OC(Oc2c(-c3ccc(O)c(O)c3)oc3cc(O)cc(O)c3c2=O)C1O)c1cc(O)c(O)c(O)c1` (centres unmarked) [compound 3], in the assay with α-glucosidase [1], the “type of inhibition (inhibition kinetic assays)” value was “non-competitive” and the IC50 is 970 nM.

As for `O=C(OC[C@@H]1O[C@@H](Oc2c(-c3ccc(O)c(O)c3)oc3cc(O)cc(O)c3c2=O)[C@@H](O)[C@H](O)[C@H]1O)c1cc(O)c(O)c(O)c1` [compound 5], in the assay with α-glucosidase [1], the “type of inhibition (inhibition kinetic assays)” value is “competitive inhibitor” and the IC50 was 27800 nM.

`C[C@H]1O[C@H](O[C@H]2[C@H](O)[C@@H](O)[C@@H](O[C@H]3[C@H](O)[C@@H](O)C(O)O[C@@H]3CO)O[C@@H]2CO)[C@H](O)[C@@H](O)[C@@H]1N[C@H]1C=C(CO)[C@@H](O)[C@H](O)[C@H]1O` (some centres unmarked) [Acarbose, reference compound]: the entries for the “Kq (bimolecular quenching constant)” value on α-glucosidase [2] (298 K), on α-glucosidase [2] (304 K) and at α-glucosidase [2] (310 K) were 3.75 ± 0.041 10^13 M^−1 s^−1, 1.89 ± 0.014 10^13 M^−1 s^−1 and 1.80 ± 0.020 10^13 M^−1 s^−1, respectively. For the same compound, the entries for the “n (number of binding sites)” value at α-glucosidase [2] (298 K), on α-glucosidase [2] (304 K) and on α-glucosidase [2] (310 K) were 1.77, 1.38 and 1.36, respectively. For the same compound, the “ΔG° (free energy change)” value at α-glucosidase [2] (298 K, Van ’t Hoff equation) was determined as 0.621 kcal/mol; on α-glucosidase [2] (304 K, Van ’t Hoff equation), 0.853 kcal/mol; on α-glucosidase [2] (310 K, Van ’t Hoff equation), 1.09 kcal/mol. In addition, the “Ksv (Stern–Volmer quenching constant)” value on α-glucosidase [2] (298 K) is listed as 3.75 ± 0.04 10^5 M^−1; on α-glucosidase [2] (304 K), 1.89 ± 0.01 10^5 M^−1; on α-glucosidase [2] (310 K), 1.80 ± 0.02 10^5 M^−1. For the same compound, the “ΔH° (enthalpy change)” value at α-glucosidase [2] (setting [6]) was -10.88 kcal/mol. Moreover, the “∆S° (entropy change)” value at α-glucosidase [2] (setting [6]) is −161.47 J mol^−1K^−1. The “number of binding sites” value on α-glucosidase [2] (no temperature stated) is “approximately 1”. Besides, on α-glucosidase [3], the reversibility of inhibition result was “reversible inhibition”. In addition, on α-glucosidase [4] (Michaelis–Menten and Lineweaver–Burk plots), the type of inhibition entry is “competitive inhibitor”. Further, the “Kcat of α-glucosidase” value on α-glucosidase [4] (inhibitor 200 µM) was determined as 2.83 ± 0.33 s⁻¹; at α-glucosidase [4] (inhibitor 400 µM) it was 2.87 ± 0.39 s⁻¹; at α-glucosidase [4] (inhibitor 800 µM), 2.77 ± 0.44 s⁻¹; at α-glucosidase [4] (inhibitor 1600 µM), 2.66 ± 0.36 s⁻¹; at α-glucosidase [4] (inhibitor 3200 µM) it was 2.79 ± 0.67 s⁻¹; at α-glucosidase [4] (inhibitor 4000 µM), 3.12 ± 1.04 s⁻¹. Further, the “Vmax of α-glucosidase” value at α-glucosidase [4] (inhibitor 200 µM, converted using the Lambert–Beer relationship) is 12.7 ± 1.50 µM/min; on α-glucosidase [4] (inhibitor 400 µM, converted using the Lambert–Beer relationship), 12.9 ± 1.70 µM/min; on α-glucosidase [4] (inhibitor 800 µM, converted using the Lambert–Beer relationship), 12.4 ± 2.00 µM/min; on α-glucosidase [4] (inhibitor 1600 µM), 0.120 ± 0.016 ΔΟD/min; on α-glucosidase [4] (inhibitor 1600 µM, converted using the Lambert–Beer relationship), 12.0 ± 1.60 µM/min; at α-glucosidase [4] (inhibitor 3200 µM, converted using the Lambert–Beer relationship), 12.5 ± 3.00 µM/min. Moreover, at α-glucosidase [4] (inhibitor 4000 µM, converted using the Lambert–Beer relationship), the “Vmax of α-glucosidase” value was determined as 14.1 ± 4.70 µM/min. The “Inactivation rate constant K” value on α-glucosidase [5] (inhibitor 200 µM) was 2.76 ± 0.07 10^−4 s^−1; on α-glucosidase [5] (inhibitor 400 µM), 2.81 ± 0.07 10^−4 s^−1; on α-glucosidase [5] (inhibitor 800 µM) it was 2.83 ± 0.05 10^−4 s^−1; at α-glucosidase [5] (inhibitor 1600 µM), 2.84 ± 0.03 10^−4 s^−1; at α-glucosidase [5] (inhibitor 3200 µM) it was 2.85 ± 0.01 10^−4 s^−1; on α-glucosidase [5] (inhibitor 4000 µM), 2.85 ± 0.09 10^−4 s^−1.

In the case of `O=c1c(O)c(-c2ccc(O)cc2)oc2cc(O)cc(O)c12` [compound 1, kaempferol], the “type of inhibition (inhibition kinetic assays)” value in the assay on α-glucosidase [1] is recorded as “non-competitive inhibitors”.

With `O=c1c(O)c(-c2ccc(O)c(O)c2)oc2cc(O)cc(O)c12` [compound 2, quercetin], in the assay with α-glucosidase [1], the “type of inhibition (inhibition kinetic assays)” value is recorded as “non-competitive inhibitors”.
